Measurements published in ChEMBL document CHEMBL1139626, “Total asymmetric synthesis of (-)-conduramine B-1 and of its enantiomer. N-Benzyl derivatives of conduramine B-1 are beta-glucosidase inhibitors” (Bioorg Med Chem Lett, 2005).
pIC50, pKi: −log10 of the molar value. Calls of active or inactive are those of the source. The calls are words filed in the database; no cut-off is given here.

Assays:
Prunus dulcis [1] = experiment: Percent inhibition against Beta Glucosidase from Almonds at 1 mM
[2] = molecular target: T1, Alpha-glucosidase (Oryza sativa Japonica Group) (UniProt Q9LGC6); experiment: Inhibition against Alpha Glucosidase from rice at 1 mM; (ni=no inhibition)
T1 sequence (whole entry): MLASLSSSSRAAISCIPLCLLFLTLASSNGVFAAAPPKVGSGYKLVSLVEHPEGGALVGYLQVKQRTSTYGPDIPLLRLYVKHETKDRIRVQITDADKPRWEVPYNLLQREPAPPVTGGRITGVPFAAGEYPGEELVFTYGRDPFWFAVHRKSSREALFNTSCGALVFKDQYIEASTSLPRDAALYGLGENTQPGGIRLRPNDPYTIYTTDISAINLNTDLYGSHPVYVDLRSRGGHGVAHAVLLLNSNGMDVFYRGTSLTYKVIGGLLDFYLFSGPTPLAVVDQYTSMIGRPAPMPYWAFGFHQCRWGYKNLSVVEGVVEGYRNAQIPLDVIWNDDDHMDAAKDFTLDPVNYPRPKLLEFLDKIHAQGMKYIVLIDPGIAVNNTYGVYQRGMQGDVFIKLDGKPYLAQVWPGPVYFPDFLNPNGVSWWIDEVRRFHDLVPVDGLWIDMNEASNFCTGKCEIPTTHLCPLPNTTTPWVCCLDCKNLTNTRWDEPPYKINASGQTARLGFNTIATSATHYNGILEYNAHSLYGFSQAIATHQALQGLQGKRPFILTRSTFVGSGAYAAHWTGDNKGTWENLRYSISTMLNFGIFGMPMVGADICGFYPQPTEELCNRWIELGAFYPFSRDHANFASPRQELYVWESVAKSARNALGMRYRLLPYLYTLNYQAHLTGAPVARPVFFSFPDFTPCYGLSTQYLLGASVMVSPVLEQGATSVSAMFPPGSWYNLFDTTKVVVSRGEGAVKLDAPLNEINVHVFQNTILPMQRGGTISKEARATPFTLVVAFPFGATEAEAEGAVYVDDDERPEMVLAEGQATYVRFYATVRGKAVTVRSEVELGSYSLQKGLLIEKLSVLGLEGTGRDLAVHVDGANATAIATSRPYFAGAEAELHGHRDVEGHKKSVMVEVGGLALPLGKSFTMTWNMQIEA

[3] = molecular target: T2, Glucoamylase 1 (Rhizopus oryzae) (UniProt P07683); experiment: Inhibition against Amyloglucosidase from Rhizopus mold at 1 mM; (ni=no inhibition)
T2 sequence (whole entry): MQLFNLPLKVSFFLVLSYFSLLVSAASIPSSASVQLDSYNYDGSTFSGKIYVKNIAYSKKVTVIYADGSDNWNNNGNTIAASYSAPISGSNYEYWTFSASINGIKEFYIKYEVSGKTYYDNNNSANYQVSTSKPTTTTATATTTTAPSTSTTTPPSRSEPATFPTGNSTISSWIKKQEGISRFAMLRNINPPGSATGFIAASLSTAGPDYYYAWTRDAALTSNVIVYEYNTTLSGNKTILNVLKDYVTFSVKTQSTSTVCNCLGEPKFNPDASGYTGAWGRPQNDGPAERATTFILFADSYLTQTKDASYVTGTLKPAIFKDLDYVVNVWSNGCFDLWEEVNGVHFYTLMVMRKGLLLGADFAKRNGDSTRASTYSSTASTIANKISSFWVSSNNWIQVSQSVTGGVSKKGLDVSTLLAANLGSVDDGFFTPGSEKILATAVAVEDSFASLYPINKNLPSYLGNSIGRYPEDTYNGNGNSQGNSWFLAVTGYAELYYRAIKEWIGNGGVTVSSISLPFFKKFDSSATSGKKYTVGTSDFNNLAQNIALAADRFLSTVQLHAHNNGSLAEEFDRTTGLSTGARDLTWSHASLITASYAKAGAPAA

[4] = molecular target: Beta-glucosidase A (Caldicellulosiruptor saccharolyticus) (UniProt P10482); experiment: Percent inhibition against Beta Glucosidase from Caldocellum saccharolyticum at 1 mM
Beta-glucosidase A (Caldicellulosiruptor saccharolyticus), sequence (P10482 whole entry): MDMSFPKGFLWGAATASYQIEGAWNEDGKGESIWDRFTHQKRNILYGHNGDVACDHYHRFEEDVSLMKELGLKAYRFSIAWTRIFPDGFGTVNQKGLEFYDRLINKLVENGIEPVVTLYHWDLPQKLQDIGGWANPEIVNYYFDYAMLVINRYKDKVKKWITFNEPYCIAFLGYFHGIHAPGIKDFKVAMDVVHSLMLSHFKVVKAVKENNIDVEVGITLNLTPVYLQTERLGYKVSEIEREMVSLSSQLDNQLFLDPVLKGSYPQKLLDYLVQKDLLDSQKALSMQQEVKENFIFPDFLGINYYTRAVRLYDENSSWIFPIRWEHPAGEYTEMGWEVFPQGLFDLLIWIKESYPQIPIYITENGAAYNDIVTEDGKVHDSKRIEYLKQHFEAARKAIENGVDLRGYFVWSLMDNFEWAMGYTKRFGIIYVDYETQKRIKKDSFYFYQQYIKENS

[5] = Inhibition against Alpha Glucosidase from yeast at 1 mM; (ni=no inhibition)
[6] = molecular target: Glucoamylase (Aspergillus niger) (UniProt P69328); experiment: Inhibition against Amyloglucosidase from Aspergillus niger at 1 mM; (ni=no inhibition)
Glucoamylase (Aspergillus niger), sequence (P69328 whole entry): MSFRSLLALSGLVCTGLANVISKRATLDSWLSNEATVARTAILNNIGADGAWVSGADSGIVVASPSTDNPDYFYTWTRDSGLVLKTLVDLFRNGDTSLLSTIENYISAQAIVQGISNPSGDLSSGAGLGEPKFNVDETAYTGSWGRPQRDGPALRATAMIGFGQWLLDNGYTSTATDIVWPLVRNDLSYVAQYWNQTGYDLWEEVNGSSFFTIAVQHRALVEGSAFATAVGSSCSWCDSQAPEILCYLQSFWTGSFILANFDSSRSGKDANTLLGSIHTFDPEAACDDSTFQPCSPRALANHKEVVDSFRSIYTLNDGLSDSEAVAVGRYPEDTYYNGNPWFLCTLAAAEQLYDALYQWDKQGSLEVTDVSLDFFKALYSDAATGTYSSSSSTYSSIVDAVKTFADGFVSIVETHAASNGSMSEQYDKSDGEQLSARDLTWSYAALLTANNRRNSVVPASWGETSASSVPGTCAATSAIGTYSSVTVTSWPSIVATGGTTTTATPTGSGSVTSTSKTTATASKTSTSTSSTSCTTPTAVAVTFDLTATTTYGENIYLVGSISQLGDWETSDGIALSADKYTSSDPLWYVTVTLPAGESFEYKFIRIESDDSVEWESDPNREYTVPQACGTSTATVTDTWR

[7] = molecular target: T3, Exo-1,4-beta-xylosidase xlnD (Aspergillus niger) (UniProt O00089); experiment: Percent inhibition against Beta-xylosidase from Aspergillus niger at 1 mM
T3 sequence (whole entry): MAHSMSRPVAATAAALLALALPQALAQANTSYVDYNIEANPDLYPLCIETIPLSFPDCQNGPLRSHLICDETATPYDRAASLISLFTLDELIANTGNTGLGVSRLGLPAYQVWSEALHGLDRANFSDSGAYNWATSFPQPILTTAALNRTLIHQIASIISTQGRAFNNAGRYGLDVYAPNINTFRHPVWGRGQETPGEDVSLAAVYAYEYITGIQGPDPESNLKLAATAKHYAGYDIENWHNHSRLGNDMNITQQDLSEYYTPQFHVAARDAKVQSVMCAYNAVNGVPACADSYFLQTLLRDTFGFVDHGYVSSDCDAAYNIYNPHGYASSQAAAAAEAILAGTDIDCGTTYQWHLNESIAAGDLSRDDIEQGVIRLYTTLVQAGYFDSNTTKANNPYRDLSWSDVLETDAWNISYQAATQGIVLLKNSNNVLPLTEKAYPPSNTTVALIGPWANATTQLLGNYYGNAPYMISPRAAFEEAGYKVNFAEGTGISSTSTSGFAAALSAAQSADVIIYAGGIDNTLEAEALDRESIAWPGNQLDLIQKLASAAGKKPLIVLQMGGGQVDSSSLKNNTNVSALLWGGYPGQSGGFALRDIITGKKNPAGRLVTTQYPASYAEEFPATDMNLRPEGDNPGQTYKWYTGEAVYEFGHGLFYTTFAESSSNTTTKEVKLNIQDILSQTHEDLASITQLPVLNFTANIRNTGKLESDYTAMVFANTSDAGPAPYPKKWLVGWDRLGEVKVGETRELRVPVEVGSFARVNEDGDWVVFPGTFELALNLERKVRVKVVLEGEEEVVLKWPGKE

[8] = Inhibitory concentration against Beta Glucosidase Almonds; design: species or system Prunus dulcis
[9] = molecular target: T3, Exo-1,4-beta-xylosidase xlnD (Aspergillus niger); experiment: Inhibition against Beta-xylosidase from Aspergillus niger at 1 mM; (ni=no inhibition)
[10] = molecular target: Beta-glucosidase A (Caldicellulosiruptor saccharolyticus) (UniProt P10482); experiment: Inhibition against Beta Glucosidase from Caldocellum saccharolyticum at 1 mM; (ni=no inhibition)
Prunus dulcis [11] = experiment: Inhibition against Beta Glucosidase from Almonds at 1 mM; (ni=no inhibition)
[12] = molecular target: T2, Glucoamylase 1 (Rhizopus oryzae); experiment: Percent inhibition against Amyloglucosidase from Rhizopus mold at 1 mM
[13] = Percent inhibition against Alpha Glucosidase from yeast at 1 mM
[14] = Inhibitory activity against Beta Glucosidase from Almonds; design: species or system Prunus dulcis
[15] = Inhibitory concentration against Beta Glucosidase from Almonds; design: species or system Prunus dulcis
Beta-glucosidase A [16] = molecular target: T4, Beta-glucosidase A (Caldicellulosiruptor saccharolyticus, UniProt P10482); experiment: Inhibitory concentration against Beta Glucosidase Caldocellum saccharolyticum
T4 sequence (P10482 whole entry): as the sequence (P10482 whole entry) above

Beta-glucosidase A [17] = molecular target: T4, Beta-glucosidase A; experiment: Inhibitory concentration against Beta Glucosidase from Caldocellum saccharolyticum
Prunus dulcis [18] = experiment: Inhibition against Beta Glucosidase from Almonds at 1 mM
[19] = molecular target: T3, Exo-1,4-beta-xylosidase xlnD (Aspergillus niger); experiment: Percent inhibition against Beta-xylosidase from Aspergillus niger at 1 mM; (ni=no inhibition)
[20] = molecular target: Glucoamylase (Aspergillus niger) (UniProt P69328); experiment: Percent inhibition against Amyloglucosidase from Aspergillus niger at 1 mM concentration
[21] = molecular target: T3, Exo-1,4-beta-xylosidase xlnD (Aspergillus niger); experiment: Inhibition against Beta-xylosidase from Aspergillus niger at 1 mM concentration

Row | SMILES | inhibition (Prunus dulcis [1]) [%] | inhibition [2] | inhibition [3] | inhibition [4] [%] | inhibition [5] | inhibition [6] | inhibition [12] [%] | pIC50 [15] | inhibition [9] | also measured
1 | CCCCCCCCNC1C=CC(O)C(O)C1O (racemic) | 85 | inactive | inactive |  | inactive | inactive |  |  | inactive | pIC50 [8]: 4.16
2 | Oc1ccccc1CNC1C=CC(O)C(O)C1O (stereo in doubt; 4k) |  | inactive |  |  |  | inactive | 29 |  | inactive | inhibition [10]: inactive; inhibition (Prunus dulcis [11]): inactive; inhibition [13]: 41%
3 | OC1C=CC(NCc2ccc(Cl)cc2)C(O)C1O (stereo in doubt; 4h) |  |  |  |  |  |  |  | 4.46 |  | pIC50 (Beta-glucosidase A [17]): 3.73
4 | OC1C=CC(NCc2ccc(Oc3ccccc3)cc2)C(O)C1O (stereo in doubt; 4j) |  |  |  |  |  |  |  | 4.37 |  | pKi [14]: 4.89; pIC50 (Beta-glucosidase A [17]): 4.28
5 | CCCNC1C=CC(O)C(O)C1O (racemic) |  | inactive |  |  | inactive | inactive | 30 | 4.18 | inactive | inhibition (Prunus dulcis [18]): 80%

More lines, main results first:

Row | inhibition (Prunus dulcis [1]) [%] | inhibition [2] | inhibition [3] | inhibition [4] [%] | inhibition [5] | inhibition [6] | inhibition [12] [%] | pIC50 [15] | SMILES | inhibition [9] | also measured
6 | 95 | inactive | inactive | 68 | inactive | inactive |  |  | COc1ccc(CNC2C=CC(O)C(O)C2O)cc1 (stereo in doubt; 4g) |  | inhibition [7]: 74%
7 |  |  |  |  |  |  |  | 4.49 | OC1C=CC(NCc2ccc(-c3ccccc3)cc2)C(O)C1O (stereo in doubt; 4i) |  | pKi [14]: 5.10; pIC50 (Beta-glucosidase A [16]): 4.46
8 | 93 | inactive |  | 56 | inactive |  | 57 |  | Oc1ccc(CNC2C=CC(O)C(O)C2O)cc1 (stereo in doubt; 4f) |  | inhibition [19]: 67%; inhibition [20]: 31%
9 | 96 | inactive | inactive | 43 | inactive | inactive |  |  | OC1C=CC(NCc2ccccc2)C(O)C1O (stereo in doubt; 4e) |  | inhibition [21]: 74%
